Laboratory results from patent publication US6096863A, “Self-assembling amphiphiles for construction of peptide secondary structures” (Regents of the University of Minnesota, priority 1996, dated 2000).
Starred links: 1 amine or outer side, 2 acyl side, 3 side chain; linkers in the order of their positions; H or OH if unused. Non-standard residues stand in square brackets, D forms with d. Residues, ends and D or L forms follow the SMILES beside them. *: point of attachment. X2 = CCCCCCCCCCCCCCCCOC(=O)CC[C@H](N*)C(=O)OCCCCCCCCCCCCCCCC; X1 = CCCCCCCCCCCCCCOC(=O)CC[C@H](N*)C(=O)OCCCCCCCCCCCCCC; X3 = CCCCCCCCCCCCOC(=O)CC[C@H](N*)C(=O)OCCCCCCCCCCCC; Hyp = O=C(O)[C@@H]1C[C@@H](O)CN1; Suc = O=C(CCC(=O)[*:2])[*:1]

Experiments:
[1] = Circular dichroism spectroscopy; format: physicochemical; settings: 25° C., 0.5 mM in H2O, λ=225 nm
Experimental: Spectra were recorded on a JASCO J-710 spectropolarimeter using a thermostated 0.1 mm quartz cell. Thermal transition curves were obtained by recording the molar ellipticity ([θ]) in the range of 10-80° C. at λ=225 nm. The peptide and peptide-amphiphile concentrations were 0.5 mM in H2 O at 25° C.

[2] = Surface pressure-area isotherms of monolayers at the air-water interface; format: physicochemical; settings: for limiting surface area (monolayer reaches maximum surface pressure and collapses): 22° C., pure water subphase
Experimental: All isotherms were obtained at 22° C. after spreading a peptide amphiphile solution in hexane-CHCl3 -methanol (5:4:1) over a pure water subphase. After 15 minutes, the monolayer was compressed laterally with constant speed for 10 mm/minute on a computerized KSV LB5000 Langmuir-Blodgett instrument and surface pressure detected using film balance with a platinum Wilhemy plate.

melanoma cell = settings: cited from earlier work

## CCCCCCCCCCCCOC(=O)CC[C@H](NC(=O)CCC(=O)NCC(=O)N[C@H](C(=O)N[C@@H](CCCCN)C(=O)NCC(=O)N[C@@H](CC(=O)O)C(=O)N[C@@H](CCCCN)C(=O)NCC(=O)N[C@@H](CC(N)=O)C(=O)N1CCC[C@H]1C(=O)NCC(=O)N[C@@H](Cc1c[nH]c2ccccc12)C(=O)N1CCC[C@H]1C(=O)NCC(=O)N[C@@H](C)C(=O)N1CCC[C@H]1C(N)=O)C(C)C)C(=O)OCCCCCCCCCCCC [(C12)2 -Glu-C2-[IV-H1]] ({X3-Suc}-GVKGDKGNPGWPGAP-NH2)
[1]
  CD spectrum, positive ellipticity (poly-Pro II / triple-helix-like structure): no positive ellipticity

## CCCCCCCCCCCCCCOC(=O)CC[C@H](NC(=O)CCC(=O)NCC(=O)N[C@H](C(=O)N[C@@H](CCCCN)C(=O)NCC(=O)N[C@@H](CC(=O)O)C(=O)N[C@@H](CCCCN)C(=O)NCC(=O)N[C@@H](CC(N)=O)C(=O)N1CCC[C@H]1C(=O)NCC(=O)N[C@@H](Cc1c[nH]c2ccccc12)C(=O)N1CCC[C@H]1C(=O)NCC(=O)N[C@@H](C)C(=O)N1CCC[C@H]1C(=O)NCC(=O)N1CCC[C@H]1C(=O)N1C[C@H](O)C[C@H]1C(=O)NCC(=O)N1CCC[C@H]1C(=O)N1C[C@H](O)C[C@H]1C(=O)NCC(=O)N1CCC[C@H]1C(=O)N1C[C@H](O)C[C@H]1C(=O)NCC(=O)N1CCC[C@H]1C(=O)N1C[C@H](O)C[C@H]1C(N)=O)C(C)C)C(=O)OCCCCCCCCCCCCCC [(C14)2 -Glu-C2 -[IV-H1]-(Gly-Pro-Hyp)4] ({X1-Suc}-GVKGDKGNPGWPGAPGP[Hyp]GP[Hyp]GP[Hyp]GP[Hyp]-NH2)
[2]
  limiting surface area (monolayer reaches maximum surface pressure and collapses): 0.6 nm^2 /molecule

## CCCCCCCCCCCCCCCCOC(=O)CC[C@H](NC(=O)CCC(=O)NCC(=O)N1CCC[C@H]1C(=O)N1C[C@H](O)C[C@H]1C(=O)NCC(=O)N1CCC[C@H]1C(=O)N1C[C@H](O)C[C@H]1C(=O)NCC(=O)N1CCC[C@H]1C(=O)N1C[C@H](O)C[C@H]1C(=O)NCC(=O)N1CCC[C@H]1C(=O)N1C[C@H](O)C[C@H]1C(=O)NCC(=O)N[C@H](C(=O)N[C@@H](CCCCN)C(=O)NCC(=O)N[C@@H](CC(=O)O)C(=O)N[C@@H](CCCCN)C(=O)NCC(=O)N[C@@H](CC(N)=O)C(=O)N1CCC[C@H]1C(=O)NCC(=O)N[C@@H](Cc1c[nH]c2ccccc12)C(=O)N1CCC[C@H]1C(=O)NCC(=O)N[C@@H](C)C(=O)N1CCC[C@H]1C(N)=O)C(C)C)C(=O)OCCCCCCCCCCCCCCCC [(C16)2 -Glu-C2 -(Gly-Pro-Hyp)4 -[IV-H1]] ({X2-Suc}-GP[Hyp]GP[Hyp]GP[Hyp]GP[Hyp]GVKGDKGNPGWPGAP-NH2)
[2]
  limiting surface area (monolayer reaches maximum surface pressure and collapses): 0.6 nm^2 /molecule

## CC(C)[C@H](NC(=O)CN)C(=O)N[C@@H](CCCCN)C(=O)NCC(=O)N[C@@H](CC(=O)O)C(=O)N[C@@H](CCCCN)C(=O)NCC(=O)N[C@@H](CC(N)=O)C(=O)N1CCC[C@H]1C(=O)NCC(=O)N[C@@H](Cc1c[nH]c2ccccc12)C(=O)N1CCC[C@H]1C(=O)NCC(=O)N[C@@H](C)C(=O)N1CCC[C@H]1C(N)=O [[IV-H1]] (H-GVKGDKGNPGWPGAP-NH2)
Melanoma cell
  melanoma cell adhesion and spreading: promote melanoma cell adhesion and spreading
[2]
  surface activity / formation of monolayers at the air-water interface: not surface active
[1]
  CD spectrum, positive ellipticity (poly-Pro II / triple-helix-like structure): did not show any positive ellipticity
